According to ChEMBL document CHEMBL1135253, “Formation of thomasidioic acid from dehydrosinapinic acid dilactone under neutral conditions, and a remaining inhibitory activity against peroxynitrite-mediated protein nitration” (Bioorg Med Chem Lett, 2002):

Experiments:
[1] = Inhibitory activity of compound was tested against peroxinitrite of collagen type I with concentration 50 uM of each sample was treated with 1.0 mM peroxynitrite
[2] = Inhibitory activity of compound was tested against peroxinitrite in collagen type I at concentration 100 uM of each sample was treated with 1.0 mM peroxynitrite
[3] = Inhibitory activity of compound was tested against peroxinitrite in collagen type I with concentration 50 uM of each sample was treated with 1.0 mM peroxynitrite

| Activity [1] | Activity [2] | Activity [3] | Compound |
| --- | --- | --- | --- |
| 0.7 |  |  | COc1cc([C@H]2c3c(cc(OC)c(O)c3OC)C=C(C(=O)O)[C@@H]2C(=O)O)cc(OC)c1O |
|  | 0.3 | 1 | COc1cc(/C=C/C(=O)O)cc(OC)c1O |
|  |  | 0.25 | COc1cc(/C=C(C(=O)O)\C(=C/c2cc(OC)c(O)c(OC)c2)C(=O)O)cc(OC)c1O |
